In brackets after ≈: the same amount, converted by molar mass.
Columns and labels:
Aspergillus ochraceus [1] = assay: Antifungal activity against Aspergillus ochraceus ATCC 12066 after 72 hrs by serial dilution method; format: functional; details: ATCC 12066, 72 h
Aspergillus versicolor [2] = assay: Antifungal activity against Aspergillus versicolor ATCC 11730 after 72 hrs by serial dilution method; format: functional; details: ATCC 11730, 72 h
Aspergillus niger [3] = assay: Antifungal activity against Aspergillus niger ATCC 6275 after 72 hrs by serial dilution method; format: functional; details: ATCC 6275, 72 h
Aspergillus fumigatus [4] = assay: Antifungal activity against Aspergillus fumigatus plant isolate after 72 hrs by serial dilution method; format: functional
Trichoderma viride [5] = assay: Antifungal activity against Trichoderma viride IAM 5061 after 72 hrs by serial dilution method; format: functional; details: IAM 5061, 72 h
Penicillium ochrochloron [6] = assay: Antifungal activity against Penicillium ochrochloron ATCC 9112 after 72 hrs by serial dilution method; format: functional; details: ATCC 9112, 72 h
Talaromyces funiculosus [7] = assay: Antifungal activity against Penicillium funiculosum ATCC 36839 after 72 hrs by serial dilution method; format: functional; details: ATCC 36839, 72 h
[8] = Antifungal activity against Fusarium sporotrichioides IMT 496 after 72 hrs by serial dilution method; format: functional
Aspergillus ochraceus [9] = assay: Fungicidal activity against Aspergillus ochraceus ATCC 12066 after 72 hrs; format: functional; details: ATCC 12066, 72 h
Aspergillus versicolor [10] = assay: Fungicidal activity against Aspergillus versicolor ATCC 11730 after 72 hrs; format: functional; details: ATCC 11730, 72 h
Aspergillus niger [11] = assay: Fungicidal activity against Aspergillus niger ATCC 6275 after 72 hrs; format: functional; details: ATCC 6275, 72 h
Aspergillus fumigatus [12] = assay: Fungicidal activity against Aspergillus fumigatus plant isolate after 72 hrs; format: functional
Trichoderma viride [13] = assay: Fungicidal activity against Trichoderma viride IAM 5061 after 72 hrs; format: functional; details: IAM 5061, 72 h
Penicillium ochrochloron [14] = assay: Fungicidal activity against Penicillium ochrochloron ATCC 9112 after 72 hrs; format: functional; details: ATCC 9112, 72 h
Talaromyces funiculosus [15] = assay: Fungicidal activity against Penicillium funiculosum ATCC 36839 after 72 hrs; format: functional; details: ATCC 36839, 72 h
[16] = system: Fusarium sporotrichioides; assay: Fungicidal activity against Fusarium sporotrichioides IMT 496 after 72 hrs; format: functional; details: IMT 496, 72 h
Staphylococcus aureus [17] = assay: Antibacterial activity against Staphylococcus aureus ATCC 6538 after 24 hrs by microdilution method; format: functional; details: ATCC 6538, 24 h
Bacillus cereus [18] = assay: Antibacterial activity against Bacillus cereus clinical isolate after 24 hrs by microdilution method; format: functional
Micrococcus flavus [19] = assay: Antibacterial activity against Micrococcus flavus ATCC 10240 after 24 hrs by microdilution method; format: functional; details: ATCC 10240, 24 h
Listeria monocytogenes [20] = assay: Antibacterial activity against Listeria monocytogenes NCTC 7973 after 24 hrs by microdilution method; format: functional; details: NCTC 7973, 24 h
Pseudomonas aeruginosa [21] = assay: Antibacterial activity against Pseudomonas aeruginosa ATCC 27853 after 24 hrs by microdilution method; format: functional; details: ATCC 27853, 24 h
Salmonella typhimurium [22] = assay: Antibacterial activity against Salmonella Typhimurium ATCC 13311 after 24 hrs by microdilution method; format: functional, Salmonella enterica subsp. enterica serovar Typhimurium; details: Salmonella enterica, ATCC 13311, 24 h
Escherichia coli [23] = assay: Antibacterial activity against Escherichia coli ATCC 35210 after 24 hrs by microdilution method; format: functional; details: ATCC 35210, 24 h
Enterococcus faecalis [24] = assay: Antibacterial activity against Enterococcus faecalis isolate obtained from human after 24 hrs by microdilution method; format: functional
Staphylococcus aureus [25] = assay: Bactericidal activity against Staphylococcus aureus ATCC 6538 after 24 hrs; format: functional; details: ATCC 6538, 24 h
Bacillus cereus [26] = assay: Bactericidal activity against Bacillus cereus clinical isolate after 24 hrs; format: functional
Micrococcus flavus [27] = assay: Bactericidal activity against Micrococcus flavus ATCC 10240 after 24 hrs; format: functional; details: ATCC 10240, 24 h
Listeria monocytogenes [28] = assay: Bactericidal activity against Listeria monocytogenes NCTC 7973 after 24 hrs; format: functional; details: NCTC 7973, 24 h
Pseudomonas aeruginosa [29] = assay: Bactericidal activity against Pseudomonas aeruginosa ATCC 27853 after 24 hrs; format: functional; details: ATCC 27853, 24 h
Salmonella typhimurium [30] = assay: Bactericidal activity against Salmonella Typhimurium ATCC 13311 after 24 hrs; format: functional, Salmonella enterica subsp. enterica serovar Typhimurium; details: Salmonella enterica, ATCC 13311, 24 h
Escherichia coli [31] = assay: Bactericidal activity against Escherichia coli ATCC 35210 after 24 hrs; format: functional; details: ATCC 35210, 24 h
Enterococcus faecalis [32] = assay: Bactericidal activity against Enterococcus faecalis isolate obtained from human after 24 hrs; format: functional

| SMILES | MIC (Aspergillus ochraceus [1]) | MIC (Aspergillus versicolor [2]) | MIC (Aspergillus niger [3]) | MIC (Aspergillus fumigatus [4]) | MIC (Trichoderma viride [5]) | MIC (Penicillium ochrochloron [6]) | MIC (Talaromyces funiculosus [7]) | MIC (10'-2 umol/ml) [8] | MFC (Aspergillus ochraceus [9]) | MFC (Aspergillus versicolor [10]) | MFC (Aspergillus niger [11]) | MFC (Aspergillus fumigatus [12]) | MFC (Trichoderma viride [13]) | MFC (Penicillium ochrochloron [14]) | MFC (Talaromyces funiculosus [15]) | MFC [16] | MIC (Staphylococcus aureus [17]) | MIC (Bacillus cereus [18]) | MIC (Micrococcus flavus [19]) | MIC (Listeria monocytogenes [20]) | further results |
| --- | --- | --- | --- | --- | --- | --- | --- | --- | --- | --- | --- | --- | --- | --- | --- | --- | --- | --- | --- | --- | --- |
| CC(=O)N1CCN(c2ccc(OCC3COC(Cn4ccnc4)(c4ccc(Cl)cc4Cl)O3)cc2)CC1 (stereo not given) [KETOCONAZOLE] | 47 µM (≈ 25 µg/mL) | 18.8 µM (≈ 9.99 µg/mL) | 282 µM (≈ 150 µg/mL) | 47 µM (≈ 25 µg/mL) | 94.2 µM (≈ 50.1 µg/mL) | 18.8 µM (≈ 9.99 µg/mL) | 9.4 µM (≈ 5 µg/mL) | 9.42 | 94.2 µM (≈ 50.1 µg/mL) | 47 µM (≈ 25 µg/mL) | 470 µM (≈ 250 µg/mL) | 94.2 µM (≈ 50.1 µg/mL) | 188 µM (≈ 99.9 µg/mL) | 47 µM (≈ 25 µg/mL) | 18.8 µM (≈ 9.99 µg/mL) | 188 µM (≈ 99.9 µg/mL) |  |  |  |  |  |
| CNc1nc(C)c(C(=O)/C=C/c2ccccc2OC)s1 | 170 µM (≈ 49 µg/mL) | 340 µM (≈ 98 µg/mL) | 340 µM (≈ 98 µg/mL) | 340 µM (≈ 98 µg/mL) | 170 µM (≈ 49 µg/mL) | 340 µM (≈ 98 µg/mL) | 340 µM (≈ 98 µg/mL) | 17 | 340 µM (≈ 98 µg/mL) | 520 µM (≈ 150 µg/mL) | 870 µM (≈ 251 µg/mL) | 520 µM (≈ 150 µg/mL) | 340 µM (≈ 98 µg/mL) | 520 µM (≈ 150 µg/mL) | 690 µM (≈ 199 µg/mL) | 340 µM (≈ 98 µg/mL) | 347 µM (≈ 100 µg/mL) | 347 µM (≈ 100 µg/mL) | 260 µM (≈ 75.1 µg/mL) | 347 µM (≈ 100 µg/mL) | MIC (Pseudomonas aeruginosa [21]): 295 µM (≈ 85.1 µg/mL); MIC (Salmonella typhimurium [22]): 347 µM (≈ 100 µg/mL); MIC (Escherichia coli [23]): 260 µM (≈ 75.1 µg/mL); MIC (Enterococcus faecalis [24]): 260 µM (≈ 75.1 µg/mL); MBC (Staphylococcus aureus [25]): 347 µM (≈ 100 µg/mL); MBC (Bacillus cereus [26]): 347 µM (≈ 100 µg/mL); MBC (Micrococcus flavus [27]): 295 µM (≈ 85.1 µg/mL); MBC (Listeria monocytogenes [28]): 521 µM (≈ 150 µg/mL); MBC (Pseudomonas aeruginosa [29]): 347 µM (≈ 100 µg/mL); MBC (Salmonella typhimurium [30]): 521 µM (≈ 150 µg/mL); MBC (Escherichia coli [31]): 347 µM (≈ 100 µg/mL); MBC (Enterococcus faecalis [32]): 347 µM (≈ 100 µg/mL) |
| CNc1nc(C)c(C(=O)/C=C/c2ccc(Cl)cc2Cl)s1 | 306 µM (≈ 100 µg/mL) | 153 µM (≈ 50 µg/mL) | 459 µM (≈ 150 µg/mL) | 153 µM (≈ 50 µg/mL) | 153 µM (≈ 50 µg/mL) | 306 µM (≈ 100 µg/mL) | 153 µM (≈ 50 µg/mL) | 15.3 | 612 µM (≈ 200 µg/mL) | 612 µM (≈ 200 µg/mL) | 612 µM (≈ 200 µg/mL) | 612 µM (≈ 200 µg/mL) | 306 µM (≈ 100 µg/mL) | 612 µM (≈ 200 µg/mL) | 306 µM (≈ 100 µg/mL) | 306 µM (≈ 100 µg/mL) | 306 µM (≈ 100 µg/mL) | 229 µM (≈ 75 µg/mL) | 306 µM (≈ 100 µg/mL) | 306 µM (≈ 100 µg/mL) | MIC (Pseudomonas aeruginosa [21]): 306 µM (≈ 100 µg/mL); MIC (Salmonella typhimurium [22]): 229 µM (≈ 75 µg/mL); MIC (Escherichia coli [23]): 306 µM (≈ 100 µg/mL); MIC (Enterococcus faecalis [24]): 306 µM (≈ 100 µg/mL); MBC (Staphylococcus aureus [25]): 459 µM (≈ 150 µg/mL); MBC (Bacillus cereus [26]): 306 µM (≈ 100 µg/mL); MBC (Micrococcus flavus [27]): 459 µM (≈ 150 µg/mL); MBC (Listeria monocytogenes [28]): 459 µM (≈ 150 µg/mL); MBC (Pseudomonas aeruginosa [29]): 306 µM (≈ 100 µg/mL); MBC (Salmonella typhimurium [30]): 306 µM (≈ 100 µg/mL); MBC (Escherichia coli [31]): 459 µM (≈ 150 µg/mL); MBC (Enterococcus faecalis [32]): 459 µM (≈ 150 µg/mL) |

— ChEMBL document CHEMBL1782000, “Thiazole-based chalcones as potent antimicrobial agents. Synthesis and biological evaluation” (2011)
